Experimental data as given in patent publication US11813305B2, “Endoplasmic reticulum stress as a predictive tool in cancer therapy and a combination therapy for the treatment of cancer” (IMMUNE SYSTEM KEY LTD., priority 2016, dated 2023).
Square brackets hold non-standard residues; d marks the D form. Peptide text beside a SMILES is read from it.

Assay: Pharmacokinetics of dTCApFs, phase I dose escalation study, i.v. 3 times/week
Details: human, plasma
Description: The dose escalation study followed a traditional “3+3” scheme and included doses of 6, 12, 24, 48, and 96 mg/m^2 intravenous (i.v.) dTCApFs, 3 times/week in consecutive 28-day cycles. In all 3-patient cohorts, there were 2-4 weeks between the first dose for the first and second patients, and ≥1 week for the third patient. New dose levels started after follow up of ≥28 days for 3 patients at the previous level. MTD was defined as the highest dose level at which ≥1 of 3 subjects experience a DLT during their first cycle of treatment. […] In addition, PK parameters, including area under the curve (AUC), maximal plasma concentration (Cmax), and plasma half-life (t1/2) were determined. PK parameters were estimated using non-compartmental models.
dTCApFs powder for solution for injection is supplied as a lyophilized 5 mL vial containing either 15 mg (7.5 mg/mL) or 10 mL vial containing 80 mg (40 mg/mL) of the active substance with 4.8% mannitol, for reconstitution to a final volume of 2 mL with water for injection per vial as described above. The reconstituted 2 mL vial of dTCApFs powder for solution for injection must thereafter be diluted to a final volume 100 mL in aqueous Dextrose 5% for infusion for dose levels up to and including 48 mg/m2. For dose levels above 48 mg/m2, the final dilution volume was 250 mL. dTCApFs for injection was administered intravenously (iv) during 60 minutes.
PK parameters, including AUC (0-24), Cmax, Cmin, Tmax and t1/2 are estimated using non-compartmental models. Comparisons across dose levels are made to assess proportionality.

CC(C)C[C@@H](NC(=O)[C@H](NC(=O)[C@@H](CO)NC(=O)[C@H]1CCCN1C(=O)[C@@H](CC(C)C)NC(=O)[C@@H](Cc1ccccc1)NC(=O)[C@@H](Cc1ccccc1)NC(=O)[C@H](NC(=O)[C@@H](Cc1c[nH]c2ccccc12)NC(=O)[C@H](N)Cc1c[nH]c2ccccc12)[C@H](C)O)[C@H](C)O)C(=O)N[C@H](Cc1c[nH]c2ccccc12)C(=O)N[C@H](CCC(=O)O)C(=O)N[C@H](CCCNC(=N)N)C(=O)N[C@H](CCCCN)C(=O)O [dTCApFs, Trp Trp Thr Phe Phe Leu Pro Ser Thr Leu Trp Glu Arg Lys] (H-[dW][dW][dT][dF][dF][dL][dP][dS][dT][dL][dW][dE][dR][dK]-OH; N-terminus and C-terminus assumed)
Cmax (intravenous, 12 mg/m^2, Cmax, Cycle 2, Day 1, 12 mg/m^2, n = 4): 6050 ng/mL | Cmax (intravenous, 24 mg/m^2, Cmax, Cycle 2, Day 1, 24 mg/m^2, n = 4): 14600 ng/mL | AUC (intravenous, 96 mg/m^2, AUC0, Cycle 2, Day 1, 96 mg/m^2, n = 3): 295000 ng·h/mL | AUC (iv, 6 mg/m2, AUC0, Cycle 1, Day 1, 6 mg/m^2, n = 3): 3810 ng·h/mL | AUC (iv, 6 mg/m2, AUC0, Cycle 2, Day 1, 6 mg/m^2, n = 3): 9720 ng·h/mL | Cmax (iv, 6 mg/m2, Cmax, Cycle 1, Day 1, 6 mg/m^2, n = 3): 1210 ng/mL | Cmax (iv, 6 mg/m2, Cmax, Cycle 2, Day 1, 6 mg/m^2, n = 3): 1540 ng/mL | half-life (iv, 6 mg/m2, T1/2, Cycle 1, Day 1, 6 mg/m^2, n = 3): 2.3 h | half-life (iv, 6 mg/m2, T1/2, Cycle 2, Day 1, 6 mg/m^2, n = 3): 2.8 h | AUC (iv, 12 mg/m2, AUC0, Cycle 1, Day 1, 12 mg/m^2, n = 4): 12900 ng·h/mL | AUC (iv, 12 mg/m2, AUC0, Cycle 2, Day 1, 12 mg/m^2, n = 4): 11500 ng·h/mL | Cmax (iv, 12 mg/m2, Cmax, Cycle 1, Day 1, 12 mg/m^2, n = 4): 6050 ng/mL | half-life (iv, 12 mg/m2, T1/2, Cycle 1, Day 1, 12 mg/m^2, n = 4): 2.1 h | half-life (iv, 12 mg/m2, T1/2, Cycle 2, Day 1, 12 mg/m^2, n = 4): 2 h | AUC (iv, 24 mg/m2, AUC0, Cycle 1, Day 1, 24 mg/m^2, n = 4): 49600 ng·h/mL | AUC (iv, 24 mg/m2, AUC0, Cycle 2, Day 1, 24 mg/m^2, n = 4): 57100 ng·h/mL | Cmax (iv, 24 mg/m2, Cmax, Cycle 1, Day 1, 24 mg/m^2, n = 4): 14600 ng/mL | half-life (iv, 24 mg/m2, T1/2, Cycle 1, Day 1, 24 mg/m^2, n = 4): 3.2 h | half-life (iv, 24 mg/m2, T1/2, Cycle 2, Day 1, 24 mg/m^2, n = 4): 3.7 h | AUC (iv, 48 mg/m2, AUC0, Cycle 1, Day 1, 48 mg/m^2, n = 4): 79900 ng·h/mL | AUC (iv, 48 mg/m2, AUC0, Cycle 2, Day 1, 48 mg/m^2, n = 4): 100000 ng·h/mL | Cmax (iv, 48 mg/m2, Cmax, Cycle 1, Day 1, 48 mg/m^2, n = 4): 18300 ng/mL | Cmax (iv, 48 mg/m2, Cmax, Cycle 2, Day 1, 48 mg/m^2, n = 4): 22100 ng/mL | half-life (iv, 48 mg/m2, T1/2, Cycle 1, Day 1, 48 mg/m^2, n = 4): 4.9 h | half-life (iv, 48 mg/m2, T1/2, Cycle 2, Day 1, 48 mg/m^2, n = 4): 4.6 h | AUC (iv, 96 mg/m2, AUC0, Cycle 1, Day 1, 96 mg/m^2, n = 3): 207000 ng·h/mL | Cmax (iv, 96 mg/m2, Cmax, Cycle 1, Day 1, 96 mg/m^2, n = 3): 33000 ng/mL | Cmax (iv, 96 mg/m2, Cmax, Cycle 2, Day 1, 96 mg/m^2, n = 3): 32000 ng/mL | half-life (iv, 96 mg/m2, T1/2, Cycle 1, Day 1, 96 mg/m^2, n = 3): 6 h | half-life (iv, 96 mg/m2, T1/2, Cycle 2, Day 1, 96 mg/m^2, n = 3): 8.5 h
